These are literature values, as cited in patent US20210046025A1, “Injection for Protecting Ischemic Myocardium and Preparation Method thereof” (priority 2018, published 2021).

The subject of data set [1] is ischemia/reperfusion myocardial infarction. Conditions: large animal models, clinically relevant reperfusion (Min Xie et al., Circulation 2014).
The conditions of data set [2]: first-pass metabolism elimination.

Molecules are shown by their SMILES.

For the compound `O=C(CCCCCCC(=O)Nc1ccccc1)NO` [N-suberoylanilide hydroxamic acid], the “Solubility in oil and water” value is “insoluble in both oil and water”; the Water solubility result is reported as “poor”. Moreover, the “Effect on myocardial infarction area” value in data set [1] is recorded as “reduce myocardial infarction area”. For the same compound, the Oral bioavailability entry in data set [2] is given as “very low”.
